The text below walks through data of BindingDB's records for doi:10.1016/j.bmc.2011.10.064 (Saitama University, 2011).

Test [1] is described as follows: Inhibition of Human influenza virus A/Aichi/2/68 (H3N2) hemagglutininin activity in chicken erythrocytes after 1 hr.
Test [2] can be described thus: Inhibition of Human influenza virus A/PR/8/34 (H1N1) hemagglutininin activity in chicken erythrocytes after 1 hr.

In general, IC50 refers to the concentration that inhibits the measured activity by half. Low readings indicate greater potency in that assay, high ones weaker potency in that assay.

`C=CC(=O)N[C@H]1[C@H]([C@H](O)[C@H](O)CO)O[C@@](SCCCCCCCCCCCC)(C(=O)O)C[C@@H]1O`: the IC50 in test [1] worked out at 3.9 µM; in test [2], 7.81 µM.
For the compound `C=CC(=O)N[C@H]1[C@H]([C@H](O)[C@H](O)CO)OC(O)(C(=O)O)C[C@@H]1O` (stereo partly specified), the IC50 in test [1] and in test [2] was above 250 µM in each case.
As for `C=CC(=O)NCCCCCC(=O)N[C@H]1[C@H]([C@H](O)[C@H](O)CO)O[C@@](SCCCCCCCCCCCC)(C(=O)O)C[C@@H]1O`, the IC50 in test [1] and in test [2] was 7.81 µM each time.
